Data published in US8574829B2, “Methods of treating cancer with phenformin” (The Trustees Of The University Of Pennsylvania, priority 2009, dated 2013).
“Also recorded” adds a separate entry of the source.

Tests used:
[1] = test system: K562 cells; assay: K562 proliferation, cell number by Coulter Counter over four days after a single dose of inhibitor; conditions: FIG. 1A; for effect on K562 proliferation (cell number): 25 nM rapamycin, four days
[2] = test system: STAT5; assay: Western blot of phospho-STAT5 (tyr694/699) in K562 cells 24 hours after inhibitor treatment; format: cell-based; conditions: relative to untreated, FIG. 2
Description: (§1) Western Blot Analysis. Cells were lysed in radioimmunoprecipitation (RIPA) buffer containing protease inhibitors (Complete Mini, Roche Applied Science), and protease inihibitors cocktails I and II (Sigma). BCA Protein Assay kit (Pierce Biotechnology) was used to assess and standardize protein concentrations. Proteins were resolved using a 4-12% NuPage Bis-Tris polyacrylamide gels (Invitrogen), and transferred to nitrocellulose membranes. Membranes were blocked using 5% nonfat dry skim milk and 0.1% Tween. […] Bands were subsequently detected using horseradish-peroxidase conjugated anti-mouse or anti-rabbit secondary antibodies (GE Healthcare Industries) and enhanced chemiluminescence detection kit (Amersham).
(§2) To characterize the pattern of signaling pathway activation in inhibitor-treated cells, the activity of the Akt and Jak-STAT pathways were examined, two pathways known to be activated by the bcr-abl oncogenic signaling. Proteins were isolated from cells, 24 hours after inhibitor treatment, and assessed for levels of phospho-Akt ([…]) and phospho-STAT5 (tyr694/699), as well as total levels of these proteins as loading controls.

[3] = test system: K562 cells; assay: Glutamine uptake of K562 cultures over four days; format: cell-based; conditions: FIG. 8
Protocol: (§3) Daily cell culture supernatants were collected, and analyzed using the Nova Biomedical Bioprofile Flex Analyzer, which determined glucose, glutamine, lactate, and ammonia levels. For the HIF-1 induction experiments, K562 cells were incubated at 4 million cells/ml in a plastic tube (Falcon 35-2059) with rubber stopper (Kontes Glass Company #882310), with constant stirring at 37 C. At indicated time points, tubes were spun to pellet cells, and the glucose, lactate and pO2 content of supernatant was assessed by syringe sampling through an air-tight rubber stopper. After supernatant sampling, cells were collected and lysates were prepared as described above.
To further investigate what functional role the TCA cycle might play in K562 proliferation, we compared the ability of phenformin-treated cells to metabolize glutamine. In tumor cells, glutaminolysis is important in maintaining TCA cycle activity, as it serves to provide an additional source of TCA cycle intermediates (a-ketoglutarate) to the mitochondria.

[4] = test system: K562 cells; assay: K562 viability under medium depletion of glucose or glutamine (propidium iodide exclusion, FACS); format: cell-based; conditions: K562, 4 days; FIG. 7
Protocol: (§4) K562 cell line was obtained from ATCC.
The viability of K562 cells after variable inhibitor treatment, and selective medium depletion of glucose or glutamine, is shown. Cell viability was determined by propidium iodide exclusion of 10,000 cells (via FACS analysis), taken from each culture each day of experiment.

[5] = test system: Akt; assay: Western blot of phospho-Akt in K562 cells 24 hours after inhibitor treatment; format: cell-based; conditions: relative to untreated, FIG. 2
Description: as §1, §2

[6] = test system: K562 cells; assay: K562 cell viability by propidium iodide exclusion over four days; format: cell-based; conditions: single dose, 1 mM phenformin, 750 nM imatinib, 25 nM rapamycin, FIG. 1B
Protocol: as §4
K562 cells were treated with a single dose of imatinib, rapamycin, or phenformin, and assessed for cell number (Coulter Counter) and cell viability (by propidium iodide exclusion) over four days.

[7] = test system: K562 cells; assay: Aerobic glycolysis: total glucose consumption and lactate production of K562 cultures over four days (Nova Bioprofile Flex Analyzer); format: cell-based; conditions: for glucose consumption: FIG. 5A; for lactate production: FIG. 5B
Protocol: as §3
To investigate the metabolic effects of phenformin on K562 cells, we compared the glycolytic activity of the cells in the drug-treated cultures by quantifying total glucose consumption and lactate production over four days (FIGS. 5A and 5B, respectively), by collecting and analyzing daily cell culture supernatants using a Nova Biomedical Bioprofile Flex Analyzer. […] Phenformin was therefore novel in its ability to dissociate aerobic glycolysis from cell proliferation.

[8] = treatment of diabetes; background statement; cited from earlier work
[9] = test system: K562 cells; assay: Comparison of phenformin and metformin: total K562 cell number after three days over a range of biguanide concentrations; format: cell-based; conditions: three days after a single dose, FIG. 3; for inhibition of K562 proliferation: started at 200,000 cells/ml
Description: Direct comparison of metformin and phenformin activity, over a range of biguanide concentrations, was accomplished by comparing total K562 cell number after three days of exposure to a single dose of phenformin or metformin, as indicated (FIG. 3). Cell cultures were started at a density of 200,000 cells/ml.

[10] = test system: Bax-Bak deficient lymphocytes; assay: Proliferation of Bax-Bak deficient lymphocytes with IL-3 stimulation, total cell number after three days; format: cell-based; conditions: three days after a single dose, started at 200,000 cells/ml, FIG. 4
Protocol: The ability of phenformin to inhibit the proliferation of Bax-Bak deficient lymphocytes, in the presence of IL-3 stimulation, was assessed, and compared to the activity of metformin. Direct comparison of metformin and phenformin activity, over a range of biguanide concentrations, was accomplished by comparing total cell numbers of bax-bak deficient cells after three days exposure to a single dose of phenformin or metformin, as indicated (FIG. 4). Cell cultures were started at a density of 200,000 cells/ml.

[11] = test system: K562 cells; assay: Oxygen consumption rate (electron transport activity), Clarke oxygen electrode; format: cell-based; conditions: 24 hours inhibitor treatment, relative to untreated, FIG. 6A
Protocol: (§5) Oxygen consumption by whole cells was measured as previously described. See Schumacker P T, Chandei N, Agusti A G. Oxygen conformance of cellular respiration in hepatocytes. Am J. Physiol. 1993; 265:L395-402. Briefly, inhibitor-treated (24 hours) K562 cells were resuspended at a concentration of 4 million cells/ml, and 1.4 mL of culture was transferred to a water-jacketed, airtight 3 ml chamber with a Clarke oxygen electrode, (Hansatech Instruments). Electron transport activity was manipulated through mitochondrial uncoupling with 10 uL of 1 mM Carbonyl cyanide 3-chlorophenylhydrazone (CCCP) (Sigma), and media supplementation of sodium Succinate (25 uL of 1M stock), after membrane permeabilization with […] (4 ul of 25 mg/ml stock). Relative ATP levels were assessed using the Invitrogen ATP determination kit (A22066), as per protocol, using 25,000 cell pellets. Cells were assayed after 24 hours of inhibitor treatment, as indicated, and results were expressed as Arbitrary Units/25000 cells.
Electron Transport Activity (ETC) activity, as determined by oxygen consumption rates, was assessed after treatment with each inhibitor, using a water-jacketed, airtight 3 ml chamber with a Clarke oxygen electrode, (Hansatech Instruments).

[12] = test system: K562 cells; assay: pO2, glucose and lactate in supernatants of K562 cells incubated in airtight tubes at 37° C.; format: cell-based; conditions: 1 to 6 hours, versus untreated, FIG. 10A
Protocol: as §3
Phenformin-treated and untreated K562 cells were transferred to airtight tubes and incubated at 37° C. for 1 to 6 hours. At one hour intervals, supernatants were analyzed for partial oxygen pressure (pO2), glucose, and lactate levels, while cells were collected for protein extract preparation. […] FIG. 10D. Tubulin serves as loading control.

[13] = test system: K562 cells; assay: Intracellular ATP levels (Invitrogen ATP determination kit); format: cell-based; conditions: K562, 24 hours of inhibitor treatment; 25,000 cell pellets; FIG. 6B
Protocol: as §5
Cells were assayed after 24 hours of inhibitor treatment, as indicated, and results were expressed as Arbitrary Units/25000 cells. Oxygen consumption correlated closely with relative levels of intracellular ATP.

[14] = test system: c-myc; assay: Western blot of BCR-Abl-induced c-myc expression in K562 cells after 24 hours of inhibitor treatment; format: cell-based; conditions: K562, 24 hours of inhibitor treatment; FIG. 9
Description: Western Blot Analysis. Cells were lysed in radioimmunoprecipitation (RIPA) buffer containing protease inhibitors (Complete Mini, Roche Applied Science), and protease inihibitors cocktails I and II (Sigma). BCA Protein Assay kit (Pierce Biotechnology) was used to assess and standardize protein concentrations. Proteins were resolved using a 4-12% NuPage Bis-Tris polyacrylamide gels (Invitrogen), and transferred to nitrocellulose membranes. Membranes were blocked using 5% nonfat dry skim milk and 0.1% Tween. Blots were subsequently probed with primary antibodies against: REDD-1 (Proteintech Group Inc), phospho-ser235/236 S6RP, total S6RP, phospho-thr172 AMPK, total-AMPK, phospho-tyr694/699 STAT5 (Upstate Biotechnology), total STAT5 (Upstate Biotechnology), phospho-thr202/tyr204 p42/44MAPK, total p42/44 MAPK, c-myc (Santa Cruz Biotechnologies), HIF-1a (Biosciences Pharmingen), and tubulin (Sigma). Unless otherwise indicated, all antibodies were obtained from Cell Signaling Technologies. Bands were subsequently detected using horseradish-peroxidase conjugated anti-mouse or anti-rabbit secondary antibodies (GE Healthcare Industries) and enhanced chemiluminescence detection kit (Amersham).
Expression levels of c-myc in inhibitor and untreated (U) control K562 cells was investigated by Western Blotting of cellular extracts prepared after 24 hours of inhibitor treatment.

[15] = test system: HIF-1; assay: HIF-1 induction in K562 cells in airtight tubes (Western blot); format: cell-based; conditions: 37° C., FIG. 10D
Description: as §1
Daily cell culture supernatants were collected, and analyzed using the Nova Biomedical Bioprofile Flex Analyzer, which determined glucose, glutamine, lactate, and ammonia levels. […] At indicated time points, tubes were spun to pellet cells, and the glucose, lactate and pO2 content of supernatant was assessed by syringe sampling through an air-tight rubber stopper. […]
Phenformin-treated and untreated K562 cells were transferred to airtight tubes and incubated at 37° C. for 1 to 6 hours. At one hour intervals, supernatants were analyzed for partial oxygen pressure (pO2), glucose, and lactate levels, while cells were collected for protein extract preparation. […]

[16] = 1 mM phenformin, 750 nM imatinib

| SMILES | effect on K562 proliferation (cell number) [1, 16] | glutamine uptake [3] | cell viability in glutamine-depleted medium [4] | Akt phosphorylation [5] | cell viability [6] | glucose consumption [7] | lactate production [7] | risk / incidence of lactic acidosis [8] | inhibition of K562 proliferation [9] | other results |
| --- | --- | --- | --- | --- | --- | --- | --- | --- | --- | --- |
| Cc1ccc(NC(=O)c2ccc(CN3CCN(C)CC3)cc2)cc1Nc1nccc(-c2cccnc2)n1 [imatinib] | halted K562 proliferation | failed to demonstrate substantial glutamine uptake | significantly increased cell death upon glutamine depletion | left Akt phosphoylation intact | induced a decrease in viability | minimal glucose consumption | minimal glucose consumption and lactate production |  |  | doubling of cell number achieved before proliferation ceased ([1]; 750 nM imatinib): approximately one; time after which proliferation ceased ([1]; 750 nM imatinib): 2 days; STAT5 phosphorylation [2]: decreased the levels of STAT5 phosphorylation |
| CN(C)C(=N)NC(=N)N [metformin] |  |  |  |  |  |  |  | significantly less than that observed with phenformin | relatively weak inhibitor of K562 proliferation |  |
| [H]/N=C(/N)N/C(=N/[H])NCCc1ccccc1 [phenformin] | halted K562 proliferation | failed to demonstrate substantial glutamine uptake | significantly increased cell death upon glutamine depletion | no suppression of Akt phosphorylation | greater viability over the four days | consumed glucose at rates similar to untreated cells | accumulated lactate and consumed glucose at rates similar to untreated cells | increased risk of lactic acidosis | more potent inhibitor of K562 proliferation | inhibition of proliferation of bax-bak deficient cells [10]: prevents proliferation of bax-bak deficient cells; also recorded: consistently more potent an inhibitor than metformin; oxygen consumption [11]: most dramatically reduced oxygen consumption; partial oxygen pressure (pO2) of the culture [12]: dramatically different partial oxygen pressures; also recorded: absence of hypoxia; also recorded: maintained an oxygen-rich environment; time after which no increase in cell number was observed ([1]; 1 mM phenformin): 24 h; potency in inhibiting K562 proliferation relative to metformin [9]: 100 fold; intracellular ATP levels [13]: most profoundly reduced; cell viability in glucose-depleted medium [4]: significantly increased cell death upon glucose depletion; c-myc expression [14]: inhibited c-myc expression more effectively than rapamycin; also recorded: commensurate in efficacy with imatinib; HIF-1 induction [15]: prevented HIF-1 induction; also recorded: prevents hypoxia and HIF-1 induction |
